Laboratory results: patent US9365572B2, “PI3K and/or mTOR inhibitor” (XUANZHU PHARMA CO., LTD., priority 2012, dated 2016)
Counter-ions that a name gives are not always drawn.

How the values were obtained:
[1] = In vivo pharmacokinetics assay in rat; details: male, SD, plasma, rats; for Vd: read-out: Vss
Description: Test animals: male SD rats, weighing 190-260 g. Intravenous bolus injection (I.V.) and gavage (P.O.) administrations were each applied to three rats.
Compound 5, for both I.V and P.O administrations, was solubilized with a solution of 30% DMF+50% PEG400+20%(0.9% sodium chloride injection)(the pH being adjusted with a suitable amount of an aqueous hydrochloric acid solution (2 mol/L)).
Compound 6, for both I.V and P.O administrations, was solubilized with a solution of 30% DMF+30% PEG400+5%0.1 mol/lhydrochloric acid+[…] normal saline.
Compound 30 for I.V administration was solubilized with a solution of 30% DMF+50% PEG400+20% normal saline; Compound 30 for P.O administration was solubilized with a solution of 5% DMSO+30% polyoxyethylene castor oil+65% normal saline.
Compound 30 hydrochloride for I.V administration was solubilized with a solution of 30% DMF+50% PEG400+20% sterile water for injection.
I.V blood sampling time point: 0.083 h, 0.25 h, 0.5 h, 1 h, 2 h, 4 h, 6 h, 8 h and 24 h after the administration, P.O blood sampling time point: 0.17 h, 0.5 h, 1 h, 2 h, 4 h, 6 h, 8 h and 24 h after the administration.
About 100 μl of whole blood was taken at each time point, anticoagulated with heparin sodium, and centrifugated at 8,000 rpm in a high-speed centrifuge for 6 minutes to separate plasma, and the resulting plasma was frozen at −80° C. in a refrigerator.
The plasma sample was treated with a liquid-liquid extraction. 20 μL of plasma was taken. A solution of BEZ-235 (Novartis, Phase II) in tertbutylmethylether (600 μL, 10 ng/mL) was added as internal standard. The mixture was rotated vertically at 1500 rpm for 10 mins and then centrifugated at 12000 rpm for 5 mins. 400 μL of the supernate was taken and dried under nitrogen. The dried substance was redissolved in 200 μL methanol:water (7:3, V/V) for LC-MS/MS analysis.
Calculation Absolute bioavailability F%=[AUC]last (P.O)*Dose(I.V)/[AUC]last (I.V)*Dose(P.O)

mTOR = mTOR (Homo sapiens (Human), UniProt P42345); assay: mTOR enzymatic assay; assay type: biochemical; details: read-out: In vitro enzymatic activity (IC50) mTOR
Method: (§1) Assay 1-2: In Vitro Enzymatic Inhibitory Activity of the Present Compound
1. Preparation of Agents:
(§2) • 1.1 1-fold kinase buffer: 50 mM HEPES, pH 7.5, 10 mM MgCl2, 1 mM EGTA, 3 mM MnCl2, 0.01% Tween-20, 2 mM DTT; • 1.2 4-fold kinase solution: mTOR kinase was added to 1-fold kinase buffer to form 4-fold kinase solution with a final concentration of 2.5 nM; • 1.3 2-fold substrate and ATP solution: the substrate 4EBP1 and ATP were added to 1-fold kinase buffer to form 2-fold substrate solution with final concentration of 50 nM of 4EBP1 and 10.8 μM of ATP; • 1.4 4-fold test substance solutions: 100-fold test substance solutions in different gradient concentrations were formulated with 100% DMSO, and diluted by 25 folds with 1-fold kinase buffer to form 4-fold test substance solutions in different gradient concentrations. • 1.5 Preparation of detection solution: a detection solution containing 2-fold final concentrations of EDTA and 4EBP1 phosphorylated antibody was formulated, wherein the final concentration for EDTA was 8 mM, and the final concentration for the 4EBP phosphorylated antibody was 2 nM. 2. Procedure • 2.1 To each well of a 384-well plate was added 2.5 μL of the 4-fold test substance solutions in gradient concentrations. The replication was made. • 2.2 To each well was added 2.5 μL of 4-fold kinase solution, and then the plate was incubated for 10 mins; • 2.3 Then to each well was added 5 μL/of 2-fold substrate and ATP solution, and then the plate was incubated at room temperature for 1 hour; • 2.4 Finally, 10 μL of the detection solution was added to terminate the reaction. After 60 mins, the data Lance signal ([…]) was read from Envision. 3 Data treatment Inhibition rate (%)=[…] • wherein: • maximum refers to the reading at the DMSO control well. • minimum refers to the reading at the control well without kinase, • The data was input into Graphpad Prism 5.0 to plot and obtain the curve and IC50 value. PI3Kα Enzymatic Assay 1. […] After 15 mins, the data Lance signal ([…]) was read from Envision. 3 Data treatment Inhibition rate (%)=100−(sample value−minimum)/(maximum−minimum)×100 • wherein: • maximum refers to the reading at the control well without kinase, • minimum refers to the reading at the DMSO control well, • The data was input into Graphpad Prism 5.0 to plot and obtain the curve and IC50 value. […]

PI3Kα = PI3Kα (Homo sapiens (Human), UniProt P42336); assay: PI3Kα enzymatic assay; assay type: biochemical; details: read-out: In vitro enzymatic activity (IC50) PI3Kα
Method: as §1, §2

PC-3 = assay: In vitro cytological inhibitory activity (XTT); assay type: cell-based; details: Homo sapiens, 72 hrs
Method: PC-3: Human prostatic carcinoma cell line;
(§3) 1. Preparation of agents and compounds:
(§4) • 1.1 Preparation of phosphoric acid buffering solution (PBS): 8 g NaCl, 0.2 g KCl, 1.44 g Na2HPO4 and 0.24 g KH2PO4 were weighed and added to 800 mL ultrapure water. The mixture was adjusted to pH=7.4, and ultrapure water was added to the metered volume of IL. Then the autoclaving was conducted for 20 mins. • 1.2 Preparation of XTT detection working solution: 100 mg (2,3-Bis-(2-methoxy-4-nitro-5-sulfophenyl)-2H-tetrazolium-5-carboxanilide); 2,3-bis(2-methoxy-4-nitro-5-sulfophenyl)-5-[(phenylamino)carbonyl]-2H-tetrazolium hydroxide (XTT) powder was weighed, and dissolved under protection from light 300 mL of phenol red-free and serum-free RPMI1640 culture, which had been warmed up to 50° C. The resulting mixture was filtered, packaged and used immediately or in one week. The complete process was conducted under protection from light. • 1.3 Preparation of the test compound • Preparation of the stock solution of the test compound: The test compound powder was dissolved in DMSO in a concentration of 10 mM. • Preparation of the gradiently diluted solution of the test compound: 10 mM of the stock solution of the test compound was successively and gradiently diluted with DMSO by 4 folds for 10 concentrations. […]

SKOV-3 = assay: In vitro cytological inhibitory activity (XTT); assay type: cell-based; details: Homo sapiens, SK-OV-3, 72 hrs
Method: SKOV-3: Human ovarian cancer cell line;
as §3, §4

A549 = assay: In vitro cytological inhibitory activity (XTT); assay type: cell-based; details: Homo sapiens, 72 hrs
Method: A549: Human lung cancer cell line;
as §3, §4

U87MG = assay: In vitro cytological inhibitory activity (XTT); assay type: cell-based; details: Homo sapiens, U-87 MG, 72 hrs
Method: U87MG: Human brain astrocytoblast cell line;
as §3, §4

PI3Kα, sequence (P42336 whole entry): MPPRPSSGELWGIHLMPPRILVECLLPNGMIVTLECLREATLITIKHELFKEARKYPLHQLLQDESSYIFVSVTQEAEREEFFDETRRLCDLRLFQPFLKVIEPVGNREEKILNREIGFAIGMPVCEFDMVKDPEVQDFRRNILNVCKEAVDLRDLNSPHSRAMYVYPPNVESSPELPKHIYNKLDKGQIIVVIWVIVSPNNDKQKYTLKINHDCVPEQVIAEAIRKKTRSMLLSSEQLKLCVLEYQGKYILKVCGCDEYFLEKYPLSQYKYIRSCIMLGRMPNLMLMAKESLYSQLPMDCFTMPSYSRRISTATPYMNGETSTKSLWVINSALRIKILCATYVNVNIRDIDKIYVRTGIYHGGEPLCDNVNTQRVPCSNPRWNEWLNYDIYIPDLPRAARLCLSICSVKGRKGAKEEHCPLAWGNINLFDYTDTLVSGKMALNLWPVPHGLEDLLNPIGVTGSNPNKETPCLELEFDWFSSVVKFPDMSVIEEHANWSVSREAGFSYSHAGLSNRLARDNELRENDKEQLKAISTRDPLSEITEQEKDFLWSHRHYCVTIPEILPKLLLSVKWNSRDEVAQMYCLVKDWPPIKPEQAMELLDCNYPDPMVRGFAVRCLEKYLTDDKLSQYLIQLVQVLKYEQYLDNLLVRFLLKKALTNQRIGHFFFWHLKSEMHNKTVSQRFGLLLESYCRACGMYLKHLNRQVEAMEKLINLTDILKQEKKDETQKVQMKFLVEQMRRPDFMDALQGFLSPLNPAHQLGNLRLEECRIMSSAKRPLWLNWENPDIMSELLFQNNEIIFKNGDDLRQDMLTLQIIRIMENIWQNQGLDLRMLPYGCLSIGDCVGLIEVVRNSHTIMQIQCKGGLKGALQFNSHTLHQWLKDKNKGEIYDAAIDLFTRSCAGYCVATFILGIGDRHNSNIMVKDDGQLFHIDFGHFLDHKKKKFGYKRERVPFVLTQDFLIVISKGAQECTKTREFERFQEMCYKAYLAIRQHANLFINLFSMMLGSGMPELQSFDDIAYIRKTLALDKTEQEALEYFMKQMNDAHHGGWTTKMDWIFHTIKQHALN
PI3Kα, sequence (P27986 whole entry partner): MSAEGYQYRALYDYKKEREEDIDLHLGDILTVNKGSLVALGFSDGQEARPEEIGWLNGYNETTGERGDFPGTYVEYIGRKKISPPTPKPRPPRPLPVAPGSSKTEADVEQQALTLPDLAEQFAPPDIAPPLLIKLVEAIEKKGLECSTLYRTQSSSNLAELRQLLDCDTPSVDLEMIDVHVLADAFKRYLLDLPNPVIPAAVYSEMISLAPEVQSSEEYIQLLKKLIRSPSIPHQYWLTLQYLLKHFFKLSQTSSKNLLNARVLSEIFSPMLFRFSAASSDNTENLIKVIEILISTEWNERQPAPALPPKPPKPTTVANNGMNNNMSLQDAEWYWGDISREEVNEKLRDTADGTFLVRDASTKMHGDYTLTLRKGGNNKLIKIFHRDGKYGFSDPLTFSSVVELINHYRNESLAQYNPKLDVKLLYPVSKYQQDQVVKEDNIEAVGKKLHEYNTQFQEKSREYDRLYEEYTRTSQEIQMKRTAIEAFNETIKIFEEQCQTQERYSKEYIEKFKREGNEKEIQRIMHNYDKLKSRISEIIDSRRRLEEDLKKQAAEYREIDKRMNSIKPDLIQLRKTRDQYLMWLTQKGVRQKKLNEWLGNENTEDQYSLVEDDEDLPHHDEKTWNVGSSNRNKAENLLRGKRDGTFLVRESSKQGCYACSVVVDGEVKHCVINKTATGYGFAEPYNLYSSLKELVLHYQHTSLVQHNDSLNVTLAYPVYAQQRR

Compound	AUC(0-inf) ([1]; intravenous, I.V, 2 mg/kg) [ng·h/mL]	AUC(0-t) ([1]; intravenous, I.V, 2 mg/kg) [ng·h/mL]	clearance ([1]; intravenous, I.V, 2 mg/kg) [mL/min/kg]	half-life ([1]; intravenous, I.V, 2 mg/kg) [h]	Vd ([1]; intravenous, I.V, 2 mg/kg) [L/kg]	IC50 (mTOR) [nM]	IC50 (PI3Kα) [nM]	other results
COc1ncc(-c2ccc3ncc4c(=O)[nH]c(=O)n(-c5cccc(C(F)(F)F)c5)c4c3n2)cn1 [Compound 17, 9-(2-methoxypyrimidin-5-yl)-1-(3-(trifluoromethyl)phenyl)pyrimido[5,4-c][1,5]naphthyridine-2,4(1H,3H)-dione]						39.3	40.7	
Cn1c(=O)c2cnc3ccc(-c4ccc(N)nc4)nc3c2n(-c2cccc(C(F)(F)F)c2)c1=O [Compound 6]	4470	4450	7.67	3.15	1.95			IC50 (PC-3): 35.8 nM; IC50 (SKOV-3): 63.1 nM; IC50 (A549): 89.5 nM; IC50 (U87MG): 37.6 nM; bioavailability ([1]; oral, P.O 4 mg/kg vs I.V 2 mg/kg, read-out: F % (absolute bioavailability)): 115%; AUC(0-inf) ([1]; oral, P.O, 4 mg/kg): 10300 ng·h/mL; AUC(0-t) ([1]; oral, P.O, 4 mg/kg): 10200 ng·h/mL; Cmax ([1]; oral, P.O, 4 mg/kg): 1120 ng/mL; Tmax ([1]; oral, P.O, 4 mg/kg): 2 h; half-life ([1]; oral, P.O, 4 mg/kg): 3.92 h
Nc1ncc(-c2ccc3ncc4c(=O)[nH]c(=O)n(-c5cccc(C(F)(F)F)c5)c4c3n2)cn1 [Compound 20, 9-(2-aminopyrimidin-5-yl)-1-(3-(trifluoromethyl)phenyl)pyrimido[5,4-c][1,5]naphthyridine-2,4(1H,3H)-dione]						2.66	15.2	

Further lines, with some results ahead:

AUC(0-inf) ([1]; intravenous, I.V, 2 mg/kg) [ng·h/mL]	AUC(0-t) ([1]; intravenous, I.V, 2 mg/kg) [ng·h/mL]	clearance ([1]; intravenous, I.V, 2 mg/kg) [mL/min/kg]	half-life ([1]; intravenous, I.V, 2 mg/kg) [h]	Vd ([1]; intravenous, I.V, 2 mg/kg) [L/kg]	IC50 (mTOR) [nM]	IC50 (PI3Kα) [nM]	Compound	other results
1690	1680	19.7	3.04	2.49			O=c1[nH]c(=O)n(-c2cccc(C(F)(F)F)c2)c2c1cnc1ccc(-c3cnc4[nH]ccc4c3)nc12 [Compound 30 hydrochloride]	
					57	79	COc1ccc(-c2ccc3ncc4c(=O)[nH]c(=O)n(-c5cccc(C(F)(F)F)c5)c4c3n2)cn1 [Compound 2, 9-(6-methoxypyridin-3-yl)-1-(3-(trifluoromethyl)phenyl)pyrimido[5,4-c][1,5]naphthyridine-2,4(1H,3H)-dione]	
